Measurements reported in the NIST ThermoML archive (doi:10.1016/j.jct.2015.08.014).
± gives the expanded uncertainty stated by the source.

Experiment: xn = mol fraction of the nth substance listed
Settings: 100 kPa, Liquid; for electrical conductivity: Alternating current cell with electrodes; for mass density: Vibrating tube method; for viscosity: Capillary tube (Ostwald / Ubbelohde) method

CCCC[N+]1(C)CCCC1.N#CN=C=[N-] [1-butyl-1-methylpyrrolidinium dicyanamide] + O=C1CCCO1
electrical conductivity (303.15 K, Frequency=0.00857143 MHz, x1 = 0.2493): 2.86 ± 0.029 S/m | electrical conductivity (303.15 K, Frequency=0.00857143 MHz, x1 = 0.3029): 2.79 ± 0.028 S/m | electrical conductivity (303.15 K, Frequency=0.00857143 MHz, x1 = 0.3845): 2.62 ± 0.026 S/m | electrical conductivity (303.15 K, Frequency=0.00857143 MHz, x1 = 0.4985): 2.33 ± 0.024 S/m | electrical conductivity (303.15 K, Frequency=0.00857143 MHz, x1 = 0.6954): 1.913 ± 0.019 S/m | electrical conductivity (303.15 K, Frequency=0.00857143 MHz, x1 = 0.9013): 1.609 ± 0.016 S/m | electrical conductivity (303.15 K, Frequency=0.00857143 MHz, x1 = 1): 1.527 ± 0.015 S/m | electrical conductivity (303.15 K, Frequency=0.00892857 MHz, x1 = 0.0463): 1.58 ± 0.028 S/m | electrical conductivity (303.15 K, Frequency=0.00892857 MHz, x1 = 0.0987): 2.38 ± 0.03 S/m | electrical conductivity (303.15 K, Frequency=0.00892857 MHz, x1 = 0.1449): 2.71 ± 0.029 S/m | electrical conductivity (303.15 K, Frequency=0.00892857 MHz, x1 = 0.1859): 2.902 ± 0.029 S/m | electrical conductivity (303.15 K, Frequency=0.00892857 MHz, x1 = 0.2493): 2.86 ± 0.029 S/m | electrical conductivity (303.15 K, Frequency=0.00892857 MHz, x1 = 0.3029): 2.79 ± 0.028 S/m | electrical conductivity (303.15 K, Frequency=0.00892857 MHz, x1 = 0.3845): 2.62 ± 0.026 S/m | electrical conductivity (303.15 K, Frequency=0.00892857 MHz, x1 = 0.4985): 2.33 ± 0.024 S/m | electrical conductivity (303.15 K, Frequency=0.00892857 MHz, x1 = 0.6954): 1.913 ± 0.019 S/m | electrical conductivity (303.15 K, Frequency=0.00892857 MHz, x1 = 0.9013): 1.609 ± 0.016 S/m | electrical conductivity (303.15 K, Frequency=0.00892857 MHz, x1 = 1): 1.527 ± 0.015 S/m | electrical conductivity (303.15 K, Frequency=0.00961538 MHz, x1 = 0.0463): 1.58 ± 0.028 S/m | electrical conductivity (303.15 K, Frequency=0.00961538 MHz, x1 = 0.0987): 2.38 ± 0.03 S/m | electrical conductivity (303.15 K, Frequency=0.00961538 MHz, x1 = 0.1449): 2.71 ± 0.029 S/m | electrical conductivity (303.15 K, Frequency=0.00961538 MHz, x1 = 0.1859): 2.903 ± 0.029 S/m | electrical conductivity (303.15 K, Frequency=0.00961538 MHz, x1 = 0.2493): 2.86 ± 0.029 S/m | electrical conductivity (303.15 K, Frequency=0.00961538 MHz, x1 = 0.3029): 2.79 ± 0.028 S/m | electrical conductivity (303.15 K, Frequency=0.00961538 MHz, x1 = 0.3845): 2.62 ± 0.026 S/m | electrical conductivity (303.15 K, Frequency=0.00961538 MHz, x1 = 0.4985): 2.33 ± 0.024 S/m | electrical conductivity (303.15 K, Frequency=0.00961538 MHz, x1 = 0.6954): 1.913 ± 0.019 S/m | electrical conductivity (303.15 K, Frequency=0.00961538 MHz, x1 = 0.9013): 1.609 ± 0.016 S/m | electrical conductivity (303.15 K, Frequency=0.00961538 MHz, x1 = 1): 1.527 ± 0.015 S/m | electrical conductivity (303.15 K, Frequency=0.01 MHz, x1 = 0.0463): 1.58 ± 0.028 S/m | electrical conductivity (303.15 K, Frequency=0.01 MHz, x1 = 0.0987): 2.38 ± 0.03 S/m | electrical conductivity (303.15 K, Frequency=0.01 MHz, x1 = 0.1449): 2.71 ± 0.029 S/m | electrical conductivity (303.15 K, Frequency=0.01 MHz, x1 = 0.1859): 2.903 ± 0.029 S/m | electrical conductivity (303.15 K, Frequency=0.01 MHz, x1 = 0.2493): 2.86 ± 0.029 S/m | electrical conductivity (303.15 K, Frequency=0.01 MHz, x1 = 0.3029): 2.79 ± 0.028 S/m | electrical conductivity (303.15 K, Frequency=0.01 MHz, x1 = 0.3845): 2.62 ± 0.026 S/m | electrical conductivity (303.15 K, Frequency=0.01 MHz, x1 = 0.4985): 2.33 ± 0.024 S/m | electrical conductivity (303.15 K, Frequency=0.01 MHz, x1 = 0.6954): 1.913 ± 0.019 S/m | electrical conductivity (303.15 K, Frequency=0.01 MHz, x1 = 0.9013): 1.609 ± 0.016 S/m | electrical conductivity (303.15 K, Frequency=0.01 MHz, x1 = 1): 1.527 ± 0.015 S/m | mass density (303.15 K, x1 = 0.0987): 1099.02 ± 8.8 kg/m3 | mass density (303.15 K, x1 = 0.1859): 1083.47 ± 8.7 kg/m3 | mass density (303.15 K, x1 = 0.3029): 1066.18 ± 8.5 kg/m3 | mass density (303.15 K, x1 = 0.4985): 1044.28 ± 8.4 kg/m3 | mass density (303.15 K, x1 = 0.6954): 1028.17 ± 8.2 kg/m3 | mass density (303.15 K, x1 = 0.9013): 1015.57 ± 8.2 kg/m3 | mass density (303.15 K, x1 = 1): 1010.64 ± 8.1 kg/m3 | electrical conductivity (313.15 K, x1 = 0.0463): 1.79 ± 0.032 S/m | electrical conductivity (313.15 K, x1 = 0.0987): 2.73 ± 0.034 S/m | electrical conductivity (313.15 K, x1 = 0.1449): 3.13 ± 0.033 S/m | electrical conductivity (313.15 K, x1 = 0.1859): 3.37 ± 0.034 S/m | electrical conductivity (313.15 K, x1 = 0.2493): 3.36 ± 0.034 S/m | electrical conductivity (313.15 K, x1 = 0.3029): 3.319 ± 0.033 S/m | electrical conductivity (313.15 K, x1 = 0.3845): 3.16 ± 0.032 S/m | electrical conductivity (313.15 K, x1 = 0.4985): 2.88 ± 0.029 S/m | electrical conductivity (313.15 K, x1 = 0.6954): 2.426 ± 0.024 S/m | electrical conductivity (313.15 K, x1 = 0.9013): 2.09 ± 0.021 S/m | electrical conductivity (313.15 K, x1 = 1): 2 ± 0.02 S/m | viscosity (313.15 K, x1 = 0.0987): 2.18 ± 0.05 mPa·s | viscosity (313.15 K, x1 = 0.1859): 3.04 ± 0.07 mPa·s | viscosity (313.15 K, x1 = 0.3029): 4.52 ± 0.1 mPa·s | viscosity (313.15 K, x1 = 0.4985): 7.85 ± 0.17 mPa·s | viscosity (313.15 K, x1 = 0.6954): 12.31 ± 0.27 mPa·s | viscosity (313.15 K, x1 = 0.9013): 18.01 ± 0.41 mPa·s | viscosity (313.15 K, x1 = 1): 21.07 ± 0.48 mPa·s | electrical conductivity (313.15 K, Frequency=0.0005 MHz, x1 = 0.0463): 1.78 ± 0.032 S/m | electrical conductivity (313.15 K, Frequency=0.0005 MHz, x1 = 0.0987): 2.71 ± 0.034 S/m | electrical conductivity (313.15 K, Frequency=0.0005 MHz, x1 = 0.1449): 3.13 ± 0.033 S/m | electrical conductivity (313.15 K, Frequency=0.0005 MHz, x1 = 0.1859): 3.34 ± 0.034 S/m | electrical conductivity (313.15 K, Frequency=0.0005 MHz, x1 = 0.2493): 3.35 ± 0.034 S/m | electrical conductivity (313.15 K, Frequency=0.0005 MHz, x1 = 0.3029): 3.302 ± 0.033 S/m | electrical conductivity (313.15 K, Frequency=0.0005 MHz, x1 = 0.3845): 3.15 ± 0.032 S/m | electrical conductivity (313.15 K, Frequency=0.0005 MHz, x1 = 0.4985): 2.87 ± 0.029 S/m | electrical conductivity (313.15 K, Frequency=0.0005 MHz, x1 = 0.6954): 2.421 ± 0.024 S/m | electrical conductivity (313.15 K, Frequency=0.0005 MHz, x1 = 0.9013): 2.08 ± 0.021 S/m | electrical conductivity (313.15 K, Frequency=0.0005 MHz, x1 = 1): 1.99 ± 0.02 S/m | electrical conductivity (313.15 K, Frequency=0.001 MHz, x1 = 0.0463): 1.78 ± 0.032 S/m | electrical conductivity (313.15 K, Frequency=0.001 MHz, x1 = 0.0987): 2.71 ± 0.034 S/m | electrical conductivity (313.15 K, Frequency=0.001 MHz, x1 = 0.1449): 3.13 ± 0.033 S/m | electrical conductivity (313.15 K, Frequency=0.001 MHz, x1 = 0.1859): 3.35 ± 0.034 S/m | electrical conductivity (313.15 K, Frequency=0.001 MHz, x1 = 0.2493): 3.36 ± 0.034 S/m | electrical conductivity (313.15 K, Frequency=0.001 MHz, x1 = 0.3029): 3.309 ± 0.033 S/m | electrical conductivity (313.15 K, Frequency=0.001 MHz, x1 = 0.3845): 3.15 ± 0.032 S/m | electrical conductivity (313.15 K, Frequency=0.001 MHz, x1 = 0.4985): 2.87 ± 0.029 S/m | electrical conductivity (313.15 K, Frequency=0.001 MHz, x1 = 0.6954): 2.422 ± 0.024 S/m | electrical conductivity (313.15 K, Frequency=0.001 MHz, x1 = 0.9013): 2.08 ± 0.021 S/m | electrical conductivity (313.15 K, Frequency=0.001 MHz, x1 = 1): 2 ± 0.02 S/m | electrical conductivity (313.15 K, Frequency=0.0015 MHz, x1 = 0.0463): 1.79 ± 0.032 S/m | electrical conductivity (313.15 K, Frequency=0.0015 MHz, x1 = 0.0987): 2.72 ± 0.034 S/m | electrical conductivity (313.15 K, Frequency=0.0015 MHz, x1 = 0.1449): 3.13 ± 0.033 S/m | electrical conductivity (313.15 K, Frequency=0.0015 MHz, x1 = 0.1859): 3.35 ± 0.034 S/m | electrical conductivity (313.15 K, Frequency=0.0015 MHz, x1 = 0.2493): 3.36 ± 0.034 S/m | electrical conductivity (313.15 K, Frequency=0.0015 MHz, x1 = 0.3029): 3.312 ± 0.033 S/m | electrical conductivity (313.15 K, Frequency=0.0015 MHz, x1 = 0.3845): 3.16 ± 0.032 S/m | electrical conductivity (313.15 K, Frequency=0.0015 MHz, x1 = 0.4985): 2.87 ± 0.029 S/m | electrical conductivity (313.15 K, Frequency=0.0015 MHz, x1 = 0.6954): 2.424 ± 0.024 S/m | electrical conductivity (313.15 K, Frequency=0.0015 MHz, x1 = 0.9013): 2.09 ± 0.021 S/m | electrical conductivity (313.15 K, Frequency=0.0015 MHz, x1 = 1): 2 ± 0.02 S/m | electrical conductivity (313.15 K, Frequency=0.002 MHz, x1 = 0.0463): 1.79 ± 0.032 S/m | electrical conductivity (313.15 K, Frequency=0.002 MHz, x1 = 0.0987): 2.72 ± 0.034 S/m | electrical conductivity (313.15 K, Frequency=0.002 MHz, x1 = 0.1449): 3.13 ± 0.033 S/m | electrical conductivity (313.15 K, Frequency=0.002 MHz, x1 = 0.1859): 3.36 ± 0.034 S/m | electrical conductivity (313.15 K, Frequency=0.002 MHz, x1 = 0.2493): 3.36 ± 0.034 S/m | electrical conductivity (313.15 K, Frequency=0.002 MHz, x1 = 0.3029): 3.314 ± 0.033 S/m | electrical conductivity (313.15 K, Frequency=0.002 MHz, x1 = 0.3845): 3.16 ± 0.032 S/m | electrical conductivity (313.15 K, Frequency=0.002 MHz, x1 = 0.4985): 2.87 ± 0.029 S/m | electrical conductivity (313.15 K, Frequency=0.002 MHz, x1 = 0.6954): 2.424 ± 0.024 S/m | electrical conductivity (313.15 K, Frequency=0.002 MHz, x1 = 0.9013): 2.09 ± 0.021 S/m
